Patent US12636285B2 (ViiV Healthcare Company, priority 2019, dated 2026)
Converted amounts (≈) assume the structure as drawn. “And” between values parts separate entries of the source, which are not always exact repeats. Identical values can stand only once. Like-named read-outs stand apart in the source and are kept apart here.

Legend:
[1] = oral administration once daily; cited from earlier work
[2] = tested on: HIV-1
[3] = tested on: clinical HIV-2 isolates; assay: Antiviral activity against clinical HIV-2 isolates; assay type: cell-based; settings: Human immunodeficiency virus 2, n=4
[4] = Pharmacokinetics in specific populations (renal, hepatic impairment, UGT1A1 genotype); assay type: in vivo, human; settings: for pharmacokinetic differences vs matching healthy subjects: oral cabotegravir
Text: No dosage adjustment is necessary for patients with mild to severe renal impairment (not on dialysis).
No dosage adjustment is necessary for patients with mild to moderate hepatic impairment (Child-Pugh Score A or B).
No dose adjustment is required in subjects with UGT1A1 polymorphisms.

[5] = Genotoxicity: bacterial reverse mutation assay, mouse lymphoma assay, in vivo rodent micronucleus assay
[6] = tested on: laboratory strains of HIV-1 (subtype B); assay: Antiviral activity in PBMCs and 293 cells; assay type: cell-based; settings: Human immunodeficiency virus 1, HEK293, n=4 strains
[7] = Fertility studies in rats; assay type: in vivo, rat; settings: oral, 1,000 mg/kg/day up to 26 weeks, male and female rats
[8] = tested on: HIV-1; assay: Antiviral activity in combination with other antivirals, cell culture; assay type: cell-based; settings: cell culture
[9] = molecular target: HIV-1 integrase (Human immunodeficiency virus type 1 group M subtype B, UniProt P04585)
[10] = Mass balance studies, single-dose oral [14C] drug; assay type: in vivo, human; settings: single-dose oral [14C] drug
[11] = tested on: HIV-1 clinical isolates; assay: Antiviral activity in PBMCs against clinical isolates; assay type: cell-based; settings: Human immunodeficiency virus 1, PBMC
[12] = in vivo
Text: The observed hepatocellular findings in mice may be rodent specific.

[13] = tested on: CYP1A2, 2A6, 2B6, 2C8, 2C9, 2C19, 2D6, 3A4; UGT1A1, 1A3, 1A4, 1A6, 1A9, 2B4, 2B7, 2B15, 2B17; P-gp; BCRP; BSEP; OCT1, OCT2; OATP1B1, OATP1B3; MATE 1, MATE 2-K …; assay: Inhibition of enzymes and transporters; assay type: in vitro ADME
[14] = Reproduction and development studies in rats
[15] = tested on: CYP1A2, CYP2B6, CYP3A4; assay: In vitro CYP induction; assay type: in vitro ADME
[16] = tested on: OATP1B1, OATP1B3, OCT1, P-gp, BCRP; assay: In vitro transporter substrate assessment; assay type: in vitro ADME
[17] = molecular target: T1, renal organic anion transporters (OAT)1 (Homo sapiens, UniProt Q4U2R8); assay: In vitro transporter inhibition, OAT1; assay type: in vitro ADME
T1 sequence (Q4U2R8 1-563): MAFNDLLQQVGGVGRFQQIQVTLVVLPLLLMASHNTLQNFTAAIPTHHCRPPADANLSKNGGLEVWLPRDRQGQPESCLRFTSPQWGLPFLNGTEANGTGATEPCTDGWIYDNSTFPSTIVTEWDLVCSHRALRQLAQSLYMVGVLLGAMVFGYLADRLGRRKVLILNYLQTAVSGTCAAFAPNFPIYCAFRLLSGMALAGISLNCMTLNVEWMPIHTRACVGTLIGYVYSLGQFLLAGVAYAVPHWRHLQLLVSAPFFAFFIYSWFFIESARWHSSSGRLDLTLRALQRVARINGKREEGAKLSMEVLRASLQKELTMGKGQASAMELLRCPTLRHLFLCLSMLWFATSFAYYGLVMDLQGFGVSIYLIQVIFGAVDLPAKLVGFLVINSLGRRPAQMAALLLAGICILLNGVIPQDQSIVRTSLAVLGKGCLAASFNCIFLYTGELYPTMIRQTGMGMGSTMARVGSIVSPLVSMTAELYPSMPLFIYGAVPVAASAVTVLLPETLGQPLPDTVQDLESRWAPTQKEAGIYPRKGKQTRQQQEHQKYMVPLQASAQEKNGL
Text: However, based on PBPK modeling, no interaction with OAT substrates is expected at clinically relevant concentrations.

[18] = Protein-adjusted IC90; assay type: cell-based; settings: read-out: protein-adjusted IC90 (PA-IC90)
Text: Mar. 4-7, 2019, Seattle, WA.).

[19] = Pharmacokinetic properties of the components of the Combination (Table 6); parameters: species or system human; settings: in vivo
[20] = Multiple-dose pharmacokinetics after monthly IM injections, population PK post-hoc estimates FLAIR and ATLAS; assay type: in vivo, human; settings: 400-mg monthly IM injection
[21] = QT cross-over trial of oral cabotegravir in healthy subjects; assay type: in vivo, human; settings: oral cabotegravir 150 mg every 12 hours
[22] = Lactating rats, exposure of pups through milk; assay type: in vivo, rat; settings: administered to lactating rats
Text: The Centers for Disease Control and Prevention recommends that HIV-1-infected mothers in the United States not breastfeed their infants to avoid risking postnatal transmission of HIV-1 infection. It is not known if the components of the Combination are present in human breast milk, affect human milk production, or have effects on the breastfed infant. […] Animal Data: Cabotegravir: […] Rilpivirine: […]

[23] = Binding to human plasma proteins; assay type: in vitro ADME; settings: read-out: % Bound to human plasma proteins (converted)

C[C@H]1CO[C@@H]2Cn3cc(C(=O)NCc4ccc(F)cc4F)c(=O)c(O)c3C(=O)N12 [Cabotegravir, (3S,11aR)-N-[(2,4-difluorophenyl)methyl]-6-hydroxy-3-methyl-5,7-dioxo-2,3,5,7,11,11a-hexahydro[1,3]oxazolo[3,2-a]pyrido[1,2-d]pyrazine-8-carboxamide]
half-life [1]: 40 h
decreased susceptibility in virologic failures ([2]; G140R, n=1): 7 fold
decreased susceptibility in virologic failures ([2]; N155H, n=1): 3 fold
decreased susceptibility in virologic failures ([2]; Q148R, n=2): 5 fold and 9 fold
EC50 ([3]; read-out: EC50 range): 0.1 to 0.14 nM
EC50 ([3]; read-out: median EC50): 0.12 nM
increase in mean steady-state AUC, Cmax, and Ctau vs normal UGT1A1 metabolism ([4]; UGT1A1 genotypes conferring poor metabolism, long-acting injection): 1.2 fold
pharmacokinetic differences vs matching healthy subjects ([4]; moderate hepatic impairment): No clinically important pharmacokinetic differences
pharmacokinetic differences vs matching healthy subjects ([4]; severe renal impairment (CrCL<30 mL/min, not on dialysis)): No clinically important pharmacokinetic differences
genotoxicity [5]: not genotoxic
EC50 [6]: 0.22 to 1.7 nM
effects on reproductive organs, spermatogenesis, mating or fertility [7]: did not cause adverse effects
antiviral activity in combination with rilpivirine, emtricitabine (FTC), lamivudine (3TC), or tenofovir disoproxil fumarate (TDF) [8]: not antagonistic
IC50 [9]: 3 nM
% of dose excreted as total 14C in feces [10]: 59%
% of dose excreted as total 14C in urine [10]: 27%
% of dose excreted as unchanged drug in feces [10]: 47%
% of dose excreted as unchanged drug in urine [10]: 0%
EC50 ([11]; read-out: EC50 range, panel of 24 HIV-1 clinical isolates, PBMCs): 0.02 to 1.06 nM
EC50 ([11]; read-out: EC50 range, subtype B clinical isolates, n=3): 0.02 to 0.5 nM
EC50 ([11]; read-out: median EC50, panel of 24 HIV-1 clinical isolates (group M subtypes A-G, group O), PBMCs): 0.19 nM
EC50 ([11]; read-out: median EC50, subtype B clinical isolates, n=3): 0.05 nM
carcinogenicity ([12]; mouse): not carcinogenic
carcinogenicity ([12]; rat): not carcinogenic
inhibition of listed CYP, UGT enzymes and transporters [13]: not a clinically relevant inhibitor
effect on parturition, prenatal and postnatal development study ([14]; oral 1,000 mg/kg/day): delayed the onset of parturition
embryo-fetal development in rats ([14]; oral 1,000 mg/kg/day, in the presence of maternal toxicity): alterations in fetal growth (decreased body weights)
placental transfer ([14]; pregnant rats): crosses the placenta
induction of CYP1A2, CYP2B6, or CYP3A4 [15]: did not induce
substrate of OATP1B1, OATP1B3, or OCT1 [16]: not a substrate
substrate of P-gp and BCRP [16]: is a substrate
IC50 [17]: 810 nM
IC90 [18]: 0.166 µg/mL (≈ 0.41 µM)
Tmax ([19]; human, im, intramuscular injection, read-out: Tmax, median (converted)): 168 h
half-life ([19]; human, im, intramuscular injection, read-out: t1/2 (absorption rate limited), mean): 941 to 1930 h
Major route of elimination [19]: Metabolism
Metabolic pathways [19]: UGT1A1
Metabolic pathways ([19]; minor pathway): UGT1A9 (minor)
Ctrough, geometric mean [20]: 2900 ng/mL
AUC ([20]; human, in vivo, read-out: AUCtau, geometric mean): 2460 µg·h/mL
Cmax ([20]; human, in vivo, read-out: Cmax, geometric mean): 4200 ng/mL
QTc interval over 24 hours post dose [21]: did not prolong the QTc interval
maximum time-matched mean QTc change (QTcF), baseline and placebo adjusted ([21]; 3 doses): 2.62 ms
presence in milk [22]: present in milk
fraction unbound [23]: < 0.002
